Assay: solubility of the quarternary ammonium salt in solvents
Type: physicochemical
Method: Preparation of Phenyl bis[4-NNN-trimethyl-ammonium-iodide-phenylamido]Phosphate, also designated phosphoric-acid-phenyl-ester-bis[4-NNN-trimethyl-ammonium-iodide-phenyl-amide] [drawing 25] The diamine V (Example 1) is dissolved in a mixture of 4:1 acetone:0.5MNaHCO3, and reacted overnight with excess Mel, methyliodide, at room temperature. The reaction mixture is then evaporated, dissolved in water and washed with ethyl acetate to remove impurities. The aqueous phase is then evaporated to dryness and the residue is washed several times with acetone to remove Sodiumiodide obtained as a by-product. The compound obtained is highly hygroscopic. The quarternary ammonium salt is very soluble in water but not in ethanol or acetone. It gives a negative reaction with TNBS.

Structure (SMILES): C[N+](C)(C)c1ccc(NP(=O)(Nc2ccc([N+](C)(C)C)cc2)Oc2ccccc2)cc1 [Example 3, Phenyl bis[4-NNN-trimethyl-ammonium-iodide-phenylamido]Phosphate]
- solubility in ethanol or acetone (ethanol or acetone): not
- solubility in water (water): very soluble
